Laboratory results taken from ChEMBL document CHEMBL3045638, “Quantitative structure-activity relationship of terpenoid aphid antifeedants” (2008).

tested on: Lipaphis erysimi; assay: Antifeedant activity against apterous adult stage of Lipaphis erysimi (mustard aphids) in compound pre-treated cabbage leaves assessed as antifeedant ratio measured after 48 hr; assay type: functional

SMILES | Ratio
CCC(=O)OC1CC(C(C)(C)O)CC=C1C (stereo unspecified) | 0.526
CC(=O)OC1CC(C)CCC1C(C)C (stereo unspecified) | 0.533
C=C(C)C1CC=C(CCOC(C)=O)CC1 (stereo unspecified) | 0.674
C=C(C)C1CC=C(CCOC(=O)CC)CC1 (stereo unspecified) | 0.701
CC1=CCC(C(C)(C)O)CC1OC=O (stereo unspecified) | 0.42
CC(=O)OCCC1C2CCC(C2)C1(C)C (stereo unspecified) | 0.628
CCCOCCC1=CCC2CC1C2(C)C (stereo unspecified) | 0.504
CC1(C)C2CC=C(CCOC=O)C1C2 (stereo unspecified) | 0.518
CCC(CCCC1C2CCC(C2)C1(C)C)OC(C)=O (stereo unspecified) | 0.83
CCC(CCC1C2CCC(C2)C1(C)C)C(C)OC(C)=O (stereo unspecified) | 0.786
CCC(=O)OC1CC(C)CCC1C(C)C (stereo unspecified) | 0.505
CCOCCC1=CCC2CC1C2(C)C (stereo unspecified) | 0.522
CC(=O)OCCC1=CCC2CC1C2(C)C (stereo unspecified) | 0.572
CCC(=O)OCCC1=CCC2CC1C2(C)C (stereo unspecified) | 0.63
CC1(C)C2CC3OC3(C)C1C2 (stereo unspecified) | 0.415
COCCC1=CCC2CC1C2(C)C (stereo unspecified) | 0.548
CC(=O)OC1CC(C(C)(C)O)CC=C1C (stereo unspecified) | 0.476
CCCC(CCCC1C2CCC(C2)C1(C)C)OC(C)=O (stereo unspecified) | 0.813
CC1CCC(C(C)C)C(O)C1 (stereo unspecified) [MENTHOL] | 0.584
CC1(C)C2CC=C(CCO)C1C2 (stereo unspecified) [Nopol] | 0.47
CC1=CCC(C(C)(C)O)CC1O (stereo unspecified) [SOBREROL] | 0.463
